The source of these data is PubChem BioAssay AID1259407 (Chemical Carcinogenesis Research Information System (CCRIS), 2018).

The test system of this data set is CCRIS mutagenicity, Ames/micronucleus/aberration tests. The data set is described as follows: CCRIS mutagenicity studies.

Activity calls are given as the source filed them. No rule for the calls is given here.

As for `O=C1CN(/N=C/c2ccc([N+](=O)[O-])o2)C(=O)N1`, the mutagenic call was “active; positive” (End Point: IN VITRO CHROMOSOMAL ABERRATIONS, Test System: CHO CELLS, Metabolic Activation: NONE); “active; positive” (End Point: IN VITRO CHROMOSOMAL ABERRATIONS, Test System: CHO CELLS, Metabolic Activation: RAT, LIVER, S-9, AROCLOR 1254); “active; positive” (Test System: AMES SALMONELLA TYPHIMURIUM, Strain/Indicator: TA97, Metabolic Activation: NONE, Method: FLUCTUATION TEST); “active; positive” (Test System: AMES SALMONELLA TYPHIMURIUM, Strain/Indicator: TA97, Metabolic Activation: NONE, Method: STANDARD PLATE); “active; positive” (Test System: AMES SALMONELLA TYPHIMURIUM, Strain/Indicator: TA98(1,8-DNP6), Metabolic Activation: NONE, Method: STANDARD PLATE); “active; positive” (Test System: AMES SALMONELLA TYPHIMURIUM, Strain/Indicator: TA98(1,8-DNP6), Metabolic Activation: RAT, LIVER, S-9, 3-METHYLCHOLANTHRENE, Method: STANDARD PLATE). The mutagenic call is, setting by setting: (Test System: AMES SALMONELLA TYPHIMURIUM, Strain/Indicator: TA98(NR), Metabolic Activation: NONE, Method: STANDARD PLATE) “active; positive”; (Test System: AMES SALMONELLA TYPHIMURIUM, Strain/Indicator: TA98(NR), Metabolic Activation: RAT, LIVER, S-9, 3-METHYLCHOLANTHRENE, Method: STANDARD PLATE) “active; positive”; (Test System: AMES SALMONELLA TYPHIMURIUM, Strain/Indicator: TA98, Metabolic Activation: HAMSTER, LIVER, S-9, AROCLOR 1254, Method: PREINCUBATION) “active; positive”; (Test System: AMES SALMONELLA TYPHIMURIUM, Strain/Indicator: TA98, Metabolic Activation: NONE) “inactive; negative”; (Test System: AMES SALMONELLA TYPHIMURIUM, Strain/Indicator: TA98, Metabolic Activation: NONE, Method: FLUCTUATION (MICROTITER)) “active; positive”; (Test System: AMES SALMONELLA TYPHIMURIUM, Strain/Indicator: TA98, Metabolic Activation: NONE, Method: PREINCUBATION) “active; positive”. Besides, the mutagenic call is “active; positive” (Test System: AMES SALMONELLA TYPHIMURIUM, Strain/Indicator: TA98, Metabolic Activation: NONE, Method: STANDARD PLATE); “active; positive” (Test System: AMES SALMONELLA TYPHIMURIUM, Strain/Indicator: TA98, Metabolic Activation: RAT, LIVER, S-9, 3-METHYLCHOLANTHRENE, Method: STANDARD PLATE); “active; positive” (Test System: AMES SALMONELLA TYPHIMURIUM, Strain/Indicator: TA98, Metabolic Activation: RAT, LIVER, S-9, AROCLOR 1254, Method: PREINCUBATION); “inactive; negative” (Test System: AMES SALMONELLA TYPHIMURIUM, Strain/Indicator: TA98, Metabolic Activation: S-9); “active; positive” (Test System: AMES SALMONELLA TYPHIMURIUM, Strain/Indicator: TA100, Metabolic Activation: HAMSTER, LIVER, S-9, AROCLOR 1254, Method: PREINCUBATION); “active; positive” (Test System: AMES SALMONELLA TYPHIMURIUM, Strain/Indicator: TA100, Metabolic Activation: NONE). The mutagenic call by setting is: (Test System: AMES SALMONELLA TYPHIMURIUM, Strain/Indicator: TA100, Metabolic Activation: NONE, Method: PREINCUBATION) “active; positive”; (Test System: AMES SALMONELLA TYPHIMURIUM, Strain/Indicator: TA100, Metabolic Activation: NONE, Method: STANDARD PLATE) “active; positive”; (Test System: AMES SALMONELLA TYPHIMURIUM, Strain/Indicator: TA100, Metabolic Activation: RAT, LIVER, S-9, AROCLOR 1254, Method: PREINCUBATION) “active; positive”; (Test System: AMES SALMONELLA TYPHIMURIUM, Strain/Indicator: TA100, Metabolic Activation: S-9) “active; positive”; (Test System: AMES SALMONELLA TYPHIMURIUM, Strain/Indicator: TA102, Metabolic Activation: NONE, Method: STANDARD PLATE) “active; positive”; (Test System: AMES SALMONELLA TYPHIMURIUM, Strain/Indicator: TA1535, Metabolic Activation: HAMSTER, LIVER, S-9, AROCLOR 1254, Method: PREINCUBATION) “inactive; negative”. Besides, the mutagenic call is, setting by setting: (Test System: AMES SALMONELLA TYPHIMURIUM, Strain/Indicator: TA1535, Metabolic Activation: NONE, Method: PREINCUBATION) “inactive; negative”; (Test System: AMES SALMONELLA TYPHIMURIUM, Strain/Indicator: TA1535, Metabolic Activation: RAT, LIVER, S-9, AROCLOR 1254, Method: PREINCUBATION) “inactive; negative”; (Test System: AMES SALMONELLA TYPHIMURIUM, Strain/Indicator: TA1537, Metabolic Activation: HAMSTER, LIVER, S-9, AROCLOR 1254, Method: PREINCUBATION) “inactive; negative”; (Test System: AMES SALMONELLA TYPHIMURIUM, Strain/Indicator: TA1537, Metabolic Activation: NONE, Method: FLUCTUATION (MICROTITER)) “inactive; negative”; (Test System: AMES SALMONELLA TYPHIMURIUM, Strain/Indicator: TA1537, Metabolic Activation: NONE, Method: PREINCUBATION) “inactive; negative”; (Test System: AMES SALMONELLA TYPHIMURIUM, Strain/Indicator: TA1537, Metabolic Activation: RAT, LIVER, S-9, AROCLOR 1254, Method: PREINCUBATION) “inactive; negative”. Besides, the mutagenic call (Test System: AMES SALMONELLA TYPHIMURIUM, Strain/Indicator: TA2638, Metabolic Activation: NONE, Method: STANDARD PLATE) is “active; positive”; the mutagenic call (Test System: AMES SALMONELLA TYPHIMURIUM, Strain/Indicator: TA7001, Metabolic Activation: NONE, Method: FLUCTUATION (MICROTITER)) is “inactive; negative”; the mutagenic call (Test System: AMES SALMONELLA TYPHIMURIUM, Strain/Indicator: TA7002, Metabolic Activation: NONE, Method: FLUCTUATION (MICROTITER)) was “active; positive”; the mutagenic call (Test System: AMES SALMONELLA TYPHIMURIUM, Strain/Indicator: TA7003, Metabolic Activation: NONE, Method: FLUCTUATION (MICROTITER)) was “inactive; negative”; the mutagenic call (Test System: AMES SALMONELLA TYPHIMURIUM, Strain/Indicator: TA7004, Metabolic Activation: NONE, Method: FLUCTUATION (MICROTITER)) is “active; positive”; the mutagenic call (Test System: AMES SALMONELLA TYPHIMURIUM, Strain/Indicator: TA7005, Metabolic Activation: NONE, Method: FLUCTUATION (MICROTITER)) is “active; positive”. In addition, the mutagenic call by setting is: (Test System: AMES SALMONELLA TYPHIMURIUM, Strain/Indicator: TA7006, Metabolic Activation: NONE, Method: FLUCTUATION (MICROTITER)) “active; positive”; (Test System: CHINESE HAMSTER OVARY, Strain/Indicator: CHO-AS52, Metabolic Activation: NONE) “inactive; negative”; (Test System: CHINESE HAMSTER OVARY, Strain/Indicator: CHO-AS52, Metabolic Activation: RAT, LIVER, S-9, 3-METHYLCHOLANTHRENE) “inactive; negative”; (Test System: CHINESE HAMSTER OVARY, Strain/Indicator: CHO-K1-BH4, Metabolic Activation: NONE) “inactive; negative”; (Test System: CHINESE HAMSTER OVARY, Strain/Indicator: CHO-K1-BH4, Metabolic Activation: RAT, LIVER, S-9, 3-METHYLCHOLANTHRENE) “active; positive”; (Test System: CHINESE HAMSTER OVARY, Strain/Indicator: CHO-UV5, Metabolic Activation: NONE) “inactive; negative”. Also, the mutagenic call is “active; positive” (Test System: CHINESE HAMSTER OVARY, Strain/Indicator: CHO-UV5, Metabolic Activation: RAT, LIVER, S-9, 3-METHYLCHOLANTHRENE); “active; positive” (Test System: E. COLI, Strain/Indicator: EE97, Metabolic Activation: NONE, Method: FLUCTUATION TEST); “active; positive” (Test System: E. COLI, Strain/Indicator: WP2 (PKM101), Metabolic Activation: NONE, Method: STANDARD PLATE); “inactive; negative” (Test System: E. COLI, Strain/Indicator: WP2, Metabolic Activation: NONE, Method: FLUCTUATION TEST); “active; positive” (Test System: E. COLI, Strain/Indicator: WP2, Metabolic Activation: NONE, Method: SPOT); “active; positive” (Test System: E. COLI, Strain/Indicator: WP2 UVRA (PKM101), Metabolic Activation: NONE, Method: STANDARD PLATE). Besides, the mutagenic call is, setting by setting: (Test System: E. COLI, Strain/Indicator: WP2 UVRA, Metabolic Activation: NONE, Method: SPOT) “active; positive”; (Test System: E. COLI, Strain/Indicator: WP2 UVRA, Metabolic Activation: NONE, Method: STANDARD PLATE) “active; positive”; (Test System: MOUSE LYMPHOMA, Strain/Indicator: L5178Y (TK+/TK-), Metabolic Activation: NONE, Method: SUSPENSION/PLATE) “active; positive”.

`CN(C)CCNC(=O)c1cccc2c(=O)c3ccccc3sc12`: the mutagenic call (Test System: AMES SALMONELLA TYPHIMURIUM, Strain/Indicator: TA1537, Metabolic Activation: NONE, Method: STANDARD PLATE) was “active; positive”.

As for `CC(=O)ON(C(C)=O)c1ccc(/C=C/c2ccccc2)cc1`, under “Test System: CHINESE HAMSTER V-79, Strain/Indicator: V-79/6-THIOGUANINE, Metabolic Activation: NONE, Method: STANDARD PLATE”, the mutagenic call is “active; positive”.
